According to article PMC7822874, “Chemoprotective antimalarials identified through quantitative high-throughput screening of Plasmodium blood and liver stage parasites” (Scientific Reports, 2021):
Further: reference of the scale not given here.

Test: in vitro
Conditions: human, hepg2-a16-cd81egfp cells
For `COc1cccc(OCCn2cc(C(=O)c3ccco3)c3ccccc32)c1` [MLS000050800], the viability at 3 µM was 106%.
In the case of `Oc1c(Cl)cc(Cl)cc1CN1CCN(Cc2ccccc2)CC1` [MLS000106505], the viability at 3 µM is reported as 92%.
Compound `C=C1C(=O)O[C@@H]2C[C@@H](C)[C@@H]3C=CC(=O)[C@@]3(C)[C@@H](OC(=O)CC(=O)O[C@H]3[C@@H]4C(=C)C(=O)O[C@@H]4C[C@@H](C)[C@@H]4C=CC(=O)[C@]43C)[C@H]12` [MLS000728515] has a viability at 3 µM of 16.4%.

Same assay, conditions: human, hepg2-a16-cd81egfp cells, % viability
Compound `CCOC(=O)c1c(CN2CCN(c3ccccc3)CC2)oc2cc(Br)c(O)cc12` [MLS001198242] has a viability at 3 µM of 90.6%.
Compound `O=C(Nc1ncccc1O)c1ccc(S(=O)(=O)Nc2ccccc2)cc1` [MLS001099437] has a viability at 3 µM of 94.2%.
`Cc1ccc(C(=O)N/N=C/c2ccc([N+](=O)[O-])s2)cc1` [MLS000519463] gave a viability at 3 µM of 95.4%.
For `COc1ccc(C2Sc3ccccc3N=C3C2=C(O)c2ccccc23)c(OC)c1OC` (stereo not drawn) [NCGC00108825], the viability at 3 µM was 43.7%.
`COc1ccc(C)cc1Nc1nc(N)c2cc(OC)c(OC)cc2n1` [NCGC00107383] gave a viability at 3 µM of 94.9%.
In the case of `COc1ccc(Nc2cc(C)nc(NCc3ccccc3)n2)cc1` [MLS000768693], the viability at 3 µM is reported as 83%.
For `COc1ccccc1CNCC(O)Cn1c2ccccc2c2ccccc21` (stereo not drawn) [MLS000391556], the viability at 3 µM was 92.6%.
For `O=[N+]([O-])c1ccc(N2CCN(/C(S)=N/C3CCCCC3)CC2)cc1` [MLS000574247], the viability at 3 µM was 99.2%.
Work on `Cc1cc(O)c(-c2cc(C(=O)Nc3ccc(S(=O)(=O)N4CCOCC4)cc3)[nH]n2)cc1C` [MLS000042703] yielded a viability at 3 µM of 93.1%.
With `CCOC(=O)c1sc2nc3c(SCCC#N)cc(C(=O)c4cc(F)ccc4O)cn3c(=O)c2c1C` [MLS000393119] the viability at 3 µM was 91.3%.
For `CCN(CC)CCOC(=O)c1ccc(N/C=C(/C#N)c2nc(-c3ccc4c(c3)OCO4)cs2)cc1` [MLS000769346], the viability at 3 µM was 100%.
Compound `Cc1cc(OC(C)C(=O)NCCc2c[nH]c3ccccc23)c2c(C)cc(=O)oc2c1` (stereo not drawn) [MLS001158613] has a viability at 3 µM of 92.7%.
Work on `CCCCOc1ccc(NC2=NC(N)=NC3(CCCCC3)N2)cc1` [MLS000109806] yielded a viability at 3 µM of 88.4%.
Compound `COc1ccc2ccc(O)c(CN3CC=C(c4ccccc4)CC3)c2c1` [MLS000760157] has a viability at 3 µM of 97.2%.
`CN1CCc2cccc3c2[C@@H]1Cc1ccc(O)c(O)c1-3` [NCGC00142462] gave a viability at 3 µM of 93.3%.
With `CCn1cnc2c(Nc3cc(F)cc(F)c3)nc(C#N)nc21` [NCGC00181918] the viability at 3 µM was 79.4%.
In the case of `COc1ccc(/C=N/Nc2cc(C)nc(-n3nc(C)cc3C)n2)c(OC)c1` [MLS000589396], the viability at 3 µM is reported as 91%.
In the case of `O=C1C=C(c2cccc(CO)c2)C[C@@H](c2ccc(Cl)cc2)C1` [MLS002302575], the viability at 3 µM is reported as 102%.
`CN1CCN(c2ccc(NC(=O)c3ccc(-c4cccc([N+](=O)[O-])c4)o3)cc2)CC1` [MLS000663772] showed a viability at 3 µM of 107%.
Compound `O=C1C(=O)c2ncccc2-c2cccnc21` [NCGC00160369] has a viability at 3 µM of 24.2%.
In the case of `Cc1nnsc1[S+]([O-])c1ccc(Cl)cc1` (stereo not drawn) [MLS001166465], the viability at 3 µM is reported as 96.9%.
With `CC1CC(C)CN(C(=O)c2ccc3ccccc3c2)C1` (stereo not drawn) [MLS001161774] the viability at 3 µM was 90.9%.
For `Cc1ccccc1C1C(C#N)=C2N=C(N)c3c(sc4c3CCCCC4)N2C2=C1C(=O)CCC2` (stereo not drawn) [MLS000543544], the viability at 3 µM was 92.6%.
Compound `COc1ccc(CCC(=O)N2Cc3ccccc3OC3(CCN(C)CC3)C2)cc1` [NCGC00456460] has a viability at 3 µM of 106%.
With `Cc1cc(Nc2cccc(Cl)c2)nc(NCc2ccccc2)n1` [MLS000591844] the viability at 3 µM was 80.9%.
In the case of `CN(CC(=O)Nc1cccc(F)c1)C(=O)c1ccc(-c2ccc(Cl)cc2)o1` [MLS001078811], the viability at 3 µM is reported as 105%.
`COc1cnc(-c2ccccn2)nc1N(C)c1ccccc1` [MLS001166302] showed a viability at 3 µM of 90.7%.
`CCC(=O)N1CCc2cc(Br)cc(S(=O)(=O)N3CCCCC3CC)c21` (stereo not drawn) [MLS000936752] showed a viability at 3 µM of 90.3%.
For `CC(C)(C)CC(C)(C)c1ccc(O)c(Cc2ccc(Cl)cc2Cl)c1` [NCGC00095016], the viability at 3 µM was 93.1%.
In the case of `O=C(c1cc(C(=O)NCCc2ccccc2)c(=O)n(CCc2ccccc2)c1)c1cc(Cl)ccc1O` [MLS000402354], the viability at 3 µM is reported as 100%.
Compound `CCc1ccccc1OC[C@@H](O)CN[C@H]1CCCc2ccccc21` [MLS002172481] has a viability at 3 µM of 97.6%.
With `Cc1ccc(C(=O)Nc2nc(-c3ccccn3)cs2)cc1[S+](=O)([O-])N1CCOCC1` [NCGC00345210] the viability at 3 µM was 29.5%.
In the case of `CCOc1ccccc1NC(=O)Cn1c(-c2ccc(Cl)cc2)noc1=O` [MLS000529487], the viability at 3 µM is reported as 86.9%.
`C/C(=N\Nc1nc(-c2ccccc2O)nc2ccccc12)c1ccccc1` [MLS000714167] gave a viability at 3 µM of 93.6%.
Compound `Cc1ccnc(NC(=O)c2cccc(S(=O)(=O)N3CCCc4ccccc43)c2)c1` [MLS001159724] has a viability at 3 µM of 89.6%.
For `CCN1CCN(Cc2ccc(NC(=O)c3cc(NC(=O)c4cncc(-c5ccc(C#N)cc5)c4)cc(OC)c3)cc2C(F)(F)F)CC1` [MLS000911575], the viability at 3 µM was 99.9%.
Work on `COc1cccc(NC(=O)CN(C)C(=O)c2oc3c(ccc4ccccc43)c2C)c1` [MLS001142056] yielded a viability at 3 µM of 101%.
In the case of `CCOC(=O)C1CCN(C(=O)c2cc(C(C)(C)C)nn2Cc2ccccc2)CC1` [MLS000860456], the viability at 3 µM is reported as 90.8%.
`CCCCN(CC)CCNC(=O)c1cc2c(-c3ccc(Cl)cc3)nn(C)c2s1` [MLS001199341] showed a viability at 3 µM of 90.6%.
In the case of `Cc1ccc(Cl)cc1NC(=O)c1cc2ccccc2cc1O` [MLS000738149], the viability at 3 µM is reported as 74%.
In the case of `C/C(=N\NC(=O)c1cccc(Br)c1)c1ccccn1` [MLS001232242], the viability at 3 µM is reported as 81.3%.
Compound `CC(=O)N(C)C1=C(N2CCOCC2)C(=O)c2ccccc2C1=O` [MLS000570886] has a viability at 3 µM of 96.1%.
Compound `OC(CNC1CCCc2ccccc21)COc1c(Cl)cccc1Cl` (stereo not drawn) [MLS000334339] has a viability at 3 µM of 100%.
Compound `CCCCc1cc(=O)oc2cc(C)cc(OCC(=O)Nc3cccnc3)c12` [MLS001160046] has a viability at 3 µM of 96.3%.
Compound `Clc1ccc(NNc2ccnc3cc(Cl)ccc23)cc1` [MLS000537447] has a viability at 3 µM of 90.3%.
For `O=C(NC1=C(Nc2ccc(Cl)cc2)C(=O)c2ccccc2C1=O)c1ccccc1` [MLS000375030], the viability at 3 µM was 97.1%.
In the case of `Nc1nonc1-n1nnc(C(=O)N/N=C/c2ccc(Br)cc2)c1-c1ccc2c(c1)OCO2` [MLS001142619], the viability at 3 µM is reported as 89.5%.
Work on `Cc1ccc(C)c2sc(N3CCN(C(=O)c4ccc([N+](=O)[O-])o4)CC3)nc12` [MLS001234268] yielded a viability at 3 µM of 94.7%.
With `CN(C)c1nc(-c2ccccn2)nnc1-c1ccccc1` [MLS000541553] the viability at 3 µM was 86.2%.
Compound `CCN1CCN(Cc2ccc(NC(=O)c3cc(NC(=O)c4cc5cccc(OC)c5o4)cc(OC)c3)cc2C(F)(F)F)CC1` [MLS000911573] has a viability at 3 µM of 94.8%.
For `CC1(C)N=C(N)N=C(N)N1c1ccc(OCCCOc2ccccc2)c(Cl)c1` [MLS000738223], the viability at 3 µM was 34.6%.
With `O=C(Nc1cccnc1)c1cn(-c2ccccc2)nc1-c1cccs1` [MLS000081870] the viability at 3 µM was 100%.
`O=C(O)c1cc(-c2ccccc2)cc(-c2ccccc2)[n+]1Cc1ccccc1` [MLS001240915] showed a viability at 3 µM of 98.5%.
With `CCCC(C)C(=O)Nc1ncc(S(=O)(=O)c2ccc([N+](=O)[O-])cc2)s1` (stereo not drawn) [MLS001034555] the viability at 3 µM was 94%.
For `Cc1ccc(S(=O)(=O)n2nccc2-c2c(-c3ccc(Cl)cc3)noc2C)cc1` [MLS001111122], the viability at 3 µM was 101%.
Work on `CCCc1c(CC)c(=N)c2ccccc2n1C` [MLS000080101] yielded a viability at 3 µM of 83.6%.
Compound `O=C1c2ccccc2CCc2ccc(B(O)O)cc21` [NCGC00183917] has a viability at 3 µM of 82.4%.
